Test results reported in US7329494B2, “Method of detection and quantification of cGMP by using a cGMP-visualizing probe” (Japan Science and Technology Corporation, priority 2000, dated 2008).

Tested on: intracellular cGMP in CGY-Del1-expressing HEK293 cells
Assay: Intracellular cGMP detected by emission ratio in CGY-expressing HEK293 cells stimulated with NOC-7
Type: cell-based, Human
Procedure: Human embryonic kidney cells (HEK293) were cultured in Dulbecco's modified eagle medium supplemented with 10% FCS, 1 mM sodium pyruvate, and 0.1 mM nonessential amino acids at 37° C. in 5% CO2, to give HEK293 cells.
The resulting HEK293 cells were transfected by the same method as in Example 2 with CGY-Del1, CGY-Del2, CGY-Del3 and CGY-Del4 expression vectors, to give HEK293 cells expressing each type of CGY.
The cGMP-visualizing probes were used to detect intracellular cGMP generated upon stimulation of the living cells with nitrogen monoxide (NO).
First, to activate the soluble guanylyl cyclase in the HEK293 cells having CGY-Del1 introduced therein obtained in Example 6, NOC-7, a compound for releasing NO spontaneously in a rate-controlled manner, was added to give its final extracellular concentration of 500 μM.
Accordingly, 1 mM 8-Br-cGMP, a phosphodiesterase-resistant analogue of cGMP, was added to the system described above.

CNCCCN(C)/[N+]([O-])=N/O [NOC-7]
emission ratio upon addition of NOC-7 (500 μM NOC-7): rapidly decreased

O=c1onc2cnc3ccccc3n12 [ODQ]
NOC-7-induced emission ratio change in cells pre-treated with ODQ (10 μM ODQ, 500 μM NOC-7): change in the emission ratio elicited by NOC-7 was not observed

CCCOc1ccccc1-c1nc2nn[nH]c2c(=O)[nH]1 [zaprinast]
NOC-7-induced emission ratio change in cells treated with zaprinast (100 μM zaprinast, 500 μM NOC-7): later slower increase in the emission ratio was not observed

Nc1nc2c(nc(Br)n2[C@@H]2O[C@@H]3COP(=O)(O)O[C@H]3[C@H]2O)c(=O)[nH]1 [8-Br-cGMP]
emission ratio on addition after NOC-7-induced decrease and recovery (added 900 seconds after 500 μM NOC-7, 1 mM 8-Br-cGMP): decreased again
